Data taken from patent US20240197677A1 (VIVIER CANADA INC., priority 2016, published 2024).

Legend:
[1] = cited from earlier work
[2] = tested on: EpiDermFT™ (EFT-400) human in vitro tissue model
Method: EFT-400 tissues were treated with test compound every 48 hours for 4, 7 and 10 days.
Epidermal thickness was assessed by measuring 10 random regions of the Hematoxylin and Eosin (H&E) stained tissue sections using OlyVIA™ software.

SMILES	pKa [1]	Thickness of H&E stained tissue sections (FIGS. 1A-F) ([2]; 0.1% Putrescine for 4 days)	Epidermis Thickness, Tissue1, Av. ([2]; 0.1% Test Article, EFT-400 Tissue1, average of 10 regions) [μm]	Epidermis Thickness, Tissue2, Av. ([2]; 0.1% Test Article, EFT-400 Tissue2, average of 10 regions) [μm]	Epidermis Thickness, Tissue3, Av. ([2]; 0.1% Test Article, EFT-400 Tissue3, average of 10 regions) [μm]	Epidermis Thickness, Av. of three tissues ([2]; 0.1% Test Article, average over Tissue1-3 (untreated 80.264 μm)) [μm]	Average increase of epidermal thickness versus untreated tissues ([2]; 0.1% putrescine)	Epidermal thickness, average ([2]; 0.1% putrescine basolaterally in culture medium, 10 random regions of H&E sections) [μm]	Epidermal tissue thickness, visual (Cytokeratin 10 / desmoplakin-1 immunostaining) ([2]; after 4 days, 0.1% Putrescine)	Tissue morphology ([2]; day 4, 0.1% Putrescine)
O=C1O[C@H]([C@@H](O)CO)C(O)=C1O [Vitamin C, L-ascorbic acid, reference compound]	around 4.17									
Cl.Cl.NCCCCN [putrescine, 1,4-Diaminobutane dihydrochloride]	10.51	increased thickness	113.846	117.160	121.676	117.561	over 46%	117.561	visually appear thicker than the untreated control tissues	consistent with healthy tissue
